According to US8822517B2, “Arylosulfonamides for the treatment of CNS diseases” (Adamed SP. Z O.O., priority 2010, dated 2014):

What was measured:
sigma σ receptor = assay: Binding assay σ (non-selective), [3H]DTG, rat cerebral cortex; settings: percent inhibition of control specific binding; compounds tested at 1×10^−6 M
Method in brief: (§1)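 Binding read by scintillation counting. Non-specific component defined by excess unlabelled ligand and removed from total counts. Compounds at 1×10^−6 M.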

adrenergic α1 receptor = assay: Binding assay α1 (non-selective), [3H]prazosin, rat cerebral cortex; settings: percent inhibition of control specific binding; compounds tested at 1×10^−6 M
Method in brief: as §1

muscarinic M3 receptor = target: T1, muscarinic M3 receptor (Homo sapiens, UniProt P20309); assay: Binding assay M3 (h), [3H]4-DAMP, CHO cells; settings: read-out: M3 [%]
T1 construct: expressed in transfected cells; host or cells: CHO cells
Method in brief: as §1

adrenergic α2C receptor [1] = target: T2, adrenergic α2C receptor (Homo sapiens, UniProt P18825); assay: Cellular functional assay, adrenergic α2C receptor (agonism/antagonism); type: cell-based; settings: for activation at 1 µM: agonist effect, percent of control specific agonist response, compounds tested at 1×10^−6M, read-out: α2C −ag [%]; for inhibition at 1 µM: read-out: α2C −antag. [%]
T2 sequence (P18825 1-462): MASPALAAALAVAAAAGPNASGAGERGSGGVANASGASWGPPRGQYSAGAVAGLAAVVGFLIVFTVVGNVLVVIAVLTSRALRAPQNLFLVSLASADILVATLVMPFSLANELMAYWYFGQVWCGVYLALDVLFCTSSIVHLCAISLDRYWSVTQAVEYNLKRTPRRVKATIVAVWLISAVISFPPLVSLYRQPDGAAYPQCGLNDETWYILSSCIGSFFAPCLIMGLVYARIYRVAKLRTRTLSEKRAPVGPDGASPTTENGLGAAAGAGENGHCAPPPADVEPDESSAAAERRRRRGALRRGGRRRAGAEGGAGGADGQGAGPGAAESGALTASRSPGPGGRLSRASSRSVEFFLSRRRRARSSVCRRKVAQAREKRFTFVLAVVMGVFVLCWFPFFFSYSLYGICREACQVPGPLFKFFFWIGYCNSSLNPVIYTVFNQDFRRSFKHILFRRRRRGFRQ
Protocol: (§2) The compounds were tested at the concentration of 1×10^−6M.
(§3) In the Tables ag refers to agonism, and antag to antagonism).

dopaminergic D3 receptor = dopaminergic D3 receptor (Homo sapiens, UniProt P35462); assay: Binding assay D3 (h), [3H]methyl-spiperone, CHO cells; set-up: expressed in transfected cells; host or cells: CHO cells; settings: read-out: D3 [%]
Method in brief: as §1

[2] = target: serotoninergic 5-HT6 receptor (Homo sapiens, UniProt P50406); assay: Binding assay 5-HT6 (h), [3H]LSD, CHO cells; set-up: expressed in transfected cells; host or cells: CHO cells; settings: read-out: 5-HT6
Method in brief: as §1

adrenergic α2C receptor [3] = target: T2, adrenergic α2C receptor; assay: Binding assay α2C (h), [3H]RX 821002, CHO cells; set-up: expressed in transfected cells; host or cells: CHO cells; settings: read-out: α2C [%]
Method in brief: as §1

dopaminergic D2 receptor = dopaminergic D2 receptor (Homo sapiens, UniProt P14416); assay: Binding assay D2S (h), [3H]methyl-spiperone, HEK-293 cells; set-up: expressed in transfected cells; host or cells: HEK-293 cells; settings: read-out: D2 [%]
Method in brief: as §1

[4] = target: T3, serotoninergic 5-HT1A receptor (Homo sapiens, UniProt P08908); assay: Binding assay 5-HT1A (h), [3H]8-OH-DPAT, HEK-293 cells; set-up: expressed in transfected cells; host or cells: HEK-293 cells; settings: read-out: 5-HT1A
T3 sequence (P08908 1-422): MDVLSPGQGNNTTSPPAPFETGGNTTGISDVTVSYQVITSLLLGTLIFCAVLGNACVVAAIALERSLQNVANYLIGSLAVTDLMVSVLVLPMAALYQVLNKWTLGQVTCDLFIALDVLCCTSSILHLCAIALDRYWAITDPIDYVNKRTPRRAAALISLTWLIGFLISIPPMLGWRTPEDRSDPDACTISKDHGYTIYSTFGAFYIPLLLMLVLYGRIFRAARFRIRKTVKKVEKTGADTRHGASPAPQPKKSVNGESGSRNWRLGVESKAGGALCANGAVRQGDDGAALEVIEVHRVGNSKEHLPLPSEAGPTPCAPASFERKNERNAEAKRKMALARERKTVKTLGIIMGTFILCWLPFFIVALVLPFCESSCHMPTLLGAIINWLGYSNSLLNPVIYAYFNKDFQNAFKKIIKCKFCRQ
Method in brief: as §1

[5] = target: serotoninergic 5-HT2A receptor (Homo sapiens, UniProt P28223); assay: Binding assay 5-HT2A (h), [3H]ketanserin, HEK-293 cells; set-up: expressed in transfected cells; host or cells: HEK-293 cells; settings: read-out: 5-HT2A
Method in brief: as §1

[6] = target: T4, histaminergic H1 receptor (Homo sapiens, UniProt P35367); assay: Binding assay H1 (h), [3H]pyrilamine, HEK-293 cells; set-up: expressed in transfected cells; host or cells: HEK-293 cells; settings: read-out: H1 [%]
Method in brief: as §1

[7] = target: T4, histaminergic H1 receptor; assay: Cellular functional assay, histaminergic H1 receptor (agonism/antagonism); type: cell-based
Protocol: as §2, §3

T4 sequence (P35367 whole entry): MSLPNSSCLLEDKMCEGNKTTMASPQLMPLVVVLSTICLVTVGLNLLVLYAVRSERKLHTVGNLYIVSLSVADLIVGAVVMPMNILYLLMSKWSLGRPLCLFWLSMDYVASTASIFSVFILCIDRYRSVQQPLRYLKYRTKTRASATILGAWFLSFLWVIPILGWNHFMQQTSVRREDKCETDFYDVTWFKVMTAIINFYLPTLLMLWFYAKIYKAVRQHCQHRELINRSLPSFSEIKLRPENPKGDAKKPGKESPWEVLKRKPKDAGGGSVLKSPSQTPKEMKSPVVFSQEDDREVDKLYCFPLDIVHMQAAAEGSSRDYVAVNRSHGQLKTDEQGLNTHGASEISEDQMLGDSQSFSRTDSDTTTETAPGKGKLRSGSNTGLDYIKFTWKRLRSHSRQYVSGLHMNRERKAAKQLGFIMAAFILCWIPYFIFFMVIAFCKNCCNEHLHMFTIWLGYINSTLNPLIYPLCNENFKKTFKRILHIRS
Sequence of serotoninergic 5-HT2A receptor (P28223 whole entry): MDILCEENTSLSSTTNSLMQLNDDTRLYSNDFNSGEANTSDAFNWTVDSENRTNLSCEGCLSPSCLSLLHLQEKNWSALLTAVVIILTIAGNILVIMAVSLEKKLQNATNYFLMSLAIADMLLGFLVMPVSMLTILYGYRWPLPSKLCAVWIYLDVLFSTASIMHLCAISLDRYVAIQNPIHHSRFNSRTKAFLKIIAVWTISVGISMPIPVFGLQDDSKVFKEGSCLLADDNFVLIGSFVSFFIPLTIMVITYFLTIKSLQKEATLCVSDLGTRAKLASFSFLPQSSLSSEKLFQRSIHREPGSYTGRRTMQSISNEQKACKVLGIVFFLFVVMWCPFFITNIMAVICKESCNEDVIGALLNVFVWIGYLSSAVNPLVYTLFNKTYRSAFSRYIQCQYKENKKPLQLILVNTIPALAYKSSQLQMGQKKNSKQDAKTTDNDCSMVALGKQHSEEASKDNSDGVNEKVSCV
Sequence of serotoninergic 5-HT6 receptor (P50406 whole entry): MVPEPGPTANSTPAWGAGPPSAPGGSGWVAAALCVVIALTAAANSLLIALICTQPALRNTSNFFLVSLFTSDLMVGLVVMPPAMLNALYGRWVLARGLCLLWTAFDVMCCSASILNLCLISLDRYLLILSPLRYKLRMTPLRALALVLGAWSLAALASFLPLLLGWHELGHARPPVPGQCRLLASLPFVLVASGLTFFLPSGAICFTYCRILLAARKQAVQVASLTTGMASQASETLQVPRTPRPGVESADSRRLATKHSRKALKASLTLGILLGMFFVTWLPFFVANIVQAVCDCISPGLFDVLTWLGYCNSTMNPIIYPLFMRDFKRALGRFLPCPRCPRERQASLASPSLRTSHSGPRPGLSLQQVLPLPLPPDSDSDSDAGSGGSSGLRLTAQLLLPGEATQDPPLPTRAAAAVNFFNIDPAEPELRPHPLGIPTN
T1 sequence (P20309 whole entry): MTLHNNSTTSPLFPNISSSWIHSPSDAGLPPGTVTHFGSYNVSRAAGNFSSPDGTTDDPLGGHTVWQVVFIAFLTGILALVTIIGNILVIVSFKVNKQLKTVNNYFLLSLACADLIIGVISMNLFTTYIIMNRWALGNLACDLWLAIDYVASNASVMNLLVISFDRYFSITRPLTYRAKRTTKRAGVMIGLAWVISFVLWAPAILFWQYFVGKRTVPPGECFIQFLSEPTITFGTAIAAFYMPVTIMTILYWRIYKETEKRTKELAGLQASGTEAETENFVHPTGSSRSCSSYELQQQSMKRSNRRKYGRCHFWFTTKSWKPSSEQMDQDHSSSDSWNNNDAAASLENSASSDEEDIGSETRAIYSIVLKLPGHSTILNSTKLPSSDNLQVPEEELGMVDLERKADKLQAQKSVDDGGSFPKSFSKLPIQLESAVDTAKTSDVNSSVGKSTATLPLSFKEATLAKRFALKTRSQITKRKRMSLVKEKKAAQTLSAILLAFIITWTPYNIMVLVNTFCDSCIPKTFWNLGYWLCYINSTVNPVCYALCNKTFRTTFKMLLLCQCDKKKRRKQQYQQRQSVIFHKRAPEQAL
Sequence of dopaminergic D2 receptor (P14416 1-414 isoform P14416-2): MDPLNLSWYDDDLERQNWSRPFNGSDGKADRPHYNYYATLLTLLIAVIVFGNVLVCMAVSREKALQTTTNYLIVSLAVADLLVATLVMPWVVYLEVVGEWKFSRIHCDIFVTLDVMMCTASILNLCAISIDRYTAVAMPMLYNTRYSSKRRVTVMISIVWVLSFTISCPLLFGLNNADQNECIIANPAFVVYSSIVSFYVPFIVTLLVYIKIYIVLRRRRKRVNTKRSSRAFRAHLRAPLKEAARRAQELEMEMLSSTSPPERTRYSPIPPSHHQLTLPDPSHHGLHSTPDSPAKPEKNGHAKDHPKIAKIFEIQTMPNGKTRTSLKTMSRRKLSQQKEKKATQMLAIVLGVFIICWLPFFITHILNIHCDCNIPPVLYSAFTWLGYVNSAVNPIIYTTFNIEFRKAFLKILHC
Sequence of dopaminergic D3 receptor (P35462 whole entry): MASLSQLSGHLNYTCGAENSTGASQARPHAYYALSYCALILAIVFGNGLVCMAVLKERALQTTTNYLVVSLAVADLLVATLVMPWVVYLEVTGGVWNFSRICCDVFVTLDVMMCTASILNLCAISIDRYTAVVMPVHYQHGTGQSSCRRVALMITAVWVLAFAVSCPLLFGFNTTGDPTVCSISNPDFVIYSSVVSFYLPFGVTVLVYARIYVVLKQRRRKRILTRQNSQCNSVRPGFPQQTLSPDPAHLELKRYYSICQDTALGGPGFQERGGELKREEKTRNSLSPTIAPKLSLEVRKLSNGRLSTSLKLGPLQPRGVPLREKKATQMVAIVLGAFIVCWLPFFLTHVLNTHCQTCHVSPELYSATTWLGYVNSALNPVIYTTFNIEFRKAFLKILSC

Row | SMILES | σ [%] (sigma σ receptor) | α1 [%] (adrenergic α1 receptor) | inhibition at 1 µM (muscarinic M3 receptor) [%] | activation at 1 µM (adrenergic α2C receptor [1]) [%] | inhibition at 1 µM (adrenergic α2C receptor [1]) [%] | inhibition at 1 µM (dopaminergic D3 receptor) [%] | inhibition at 1 µM [2] [%] | inhibition at 1 µM (adrenergic α2C receptor [3]) [%] | inhibition at 1 µM (dopaminergic D2 receptor) [%] | inhibition at 1 µM [4] [%] | inhibition at 1 µM [5] [%] | inhibition at 1 µM [6] [%] | activation at 1 µM ([7]; agonist effect, percent of control specific agonist response, compounds tested at 1×10^−6M, read-out: H1 -ag [%]) [%] | inhibition at 1 µM ([7]; read-out: H1 -antag. [%]) [%]
1 | O=c1[nH]c2ccc(S(=O)(=O)NCCCCN3CCN(c4noc5ccccc45)CC3)cc2o1 [Compound 16, N-(4-(4-(1,2-Benzoxazol-3-yl)piperazin-1-yl)butyl)-2-oxo-3H-1,3-benzoxazole-6-sulphonamide] | 2 | 101 | -1 | -7 | 9 | 99 | 94 | 101 | 99 | 93 | 100 | 97 | – | –
2 | O=S(=O)(NCCCCN1CCN(c2noc3ccccc23)CC1)c1c[nH]c2ncccc12 [Compound 89, N-[4-[4-(1,2-Benzoxazol-3-yl)piperazin-1-yl]butyl]-1H-pyrrolo[2,3-b]pyridine-3-sulphonamide] | −1 | 98 | 22 | -10 | 7 | 95 | 94 | 98 | 89 | 71 | 99 | 85 | – | –
3 | O=S(=O)(NCCCN1CCC(c2noc3cc(F)ccc23)CC1)c1ccc2cc(Cl)ccc2c1 [Compound 98, 6-Chloro-N-[3-[4-(6-fluoro-1,2-benzoxazol-3-yl)piperidin-1-yl]propyl]naphthalene-2-sulphonamide] | – | – | 16 | -1 | 16 | 104 | 98 | 108 | 101 | 80 | 102 | 100 | -1 | 78
4 | O=S(=O)(NCCCCN1CCN(c2cccc3[nH]ccc23)CC1)c1ccc2ccccc2c1 [Compound 26, N-{4-[4-(1H-Indol-4-yl)piperazin-1-yl]butyl}naphthalene-2-sulphonamide] | 99 | 98 | 17 | 25 | 53 | 98 | 51 | 100 | 97 | 100 | 98 | 52 | – | –
5 | O=S(=O)(NCCCCN1CCN(c2noc3ccccc23)CC1)c1cccc2ccccc12 [Compound 13, N-(4-(4-(1,2-Benzoxazol-3-yl)piperazin-1-yl)butyl)naphthalene-1-sulphonamide] | 87 | 102 | -1 | -7 | 18 | 92 | 96 | 99 | 99 | 89 | 100 | 84 | – | –
6 | O=S(=O)(NCCCCN1CCN(c2cccc3[nH]ccc23)CC1)c1cccc(F)c1 [Compound 28, 3-Fluoro-N-{4-[4-(1H-indol-4-yl)piperazin-1-yl]butyl}benzenesulphonamide] | 84 | 92 | 50 | 4 | 27 | 99 | 98 | 92 | 98 | 100 | 89 | 57 | – | –
7 | O=S(=O)(NCCCCN1CCC(c2noc3cc(F)ccc23)CC1)c1cc2ccccc2s1 [Compound 312, N-[4-[4-(6-Fluoro-1,2-benzoxazol-3-yl)piperidin-1-yl]butyl]benzothiophene-2-sulphonamide] | 71 | 100 | 19 | 61 | 39 | 97 | 98 | 92 | 99 | 86 | 99 | 86 | – | –
8 | O=c1[nH]c2cccc(N3CCN(CCCNS(=O)(=O)c4cccc5ccccc45)CC3)c2[nH]1 [Compound 423, N-[3-[4-(2-oxo-1,3-dihydrobenzimidazol-4-yl)piperazin-1-yl]propyl]naphthalene-1-sulphonamide] | 9 | 91 | -1 | – | – | 98 | 16 | 69 | 97 | 99 | 30 | 16 | – | –
9 | O=S(=O)(NCCCCN1CCN(c2cccc3[nH]ccc23)CC1)c1ccccc1 [Compound 27, N-{4-[4-(1H-Indol-4-yl)piperazin-1-yl]butyl}benzenesulphonamide] | 78 | 96 | 46 | 3 | 31 | 96 | 34 | 100 | 90 | 99 | 62 | 27 | – | –
10 | O=c1[nH]c2cccc(N3CCN(CCCNS(=O)(=O)c4ccc5ccccc5c4)CC3)c2[nH]1 [Compound 424, N-[3-[4-(2-oxo-1,3-dihydrobenzimidazol-4-yl)piperazin-1-yl]propyl]naphthalene-2-sulphonamide] | −3 | 93 | 7 | – | – | 98 | 69 | 67 | 97 | 99 | 66 | 28 | – | –
11 | O=S(=O)(NCCCCN1CCN(c2cccc3[nH]ccc23)CC1)c1cc2ccccc2s1 [Compound 33, N-{4-[4-(1H-Indol-4-yl)piperazin-1-yl]butyl}-1-benzothiophene-2-sulphonamide] | 94 | 100 | 5 | -1 | 6 | 101 | 42 | 100 | 97 | 100 | 95 | 56 | – | –
